Assay results: patent US6713505B2, “spla2 inhibitors” (Eli Lilly and Company, priority 2000, dated 2004)

Target: T1, recombinant human secreted phospholipase A2 (Homo sapiens, UniProt P14555)
T1 sequence (P14555 21-144): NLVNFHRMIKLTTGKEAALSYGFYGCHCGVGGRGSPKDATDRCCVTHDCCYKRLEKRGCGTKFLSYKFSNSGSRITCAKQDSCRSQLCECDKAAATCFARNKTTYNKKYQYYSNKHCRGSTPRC
Assay: chromogenic assay for inhibitors of recombinant human secreted phospholipase A2
Format: biochemical
Conditions: diheptanoyl thio-PC substrate, pH 7.5, 40° C. for 30 minutes, absorbance at 405 nanometers, triplicate
From the text: The following chromogenic assay procedure was used to identify and evaluate inhibitors of recombinant human secreted phospholipase A2. The assay described herein has been adapted for high volume screening using 96 well microtiter plates. A general description of this assay method is found in the article, “Analysis of Human Synovial Fluid Phospholipase A2 on Short Chain Phosphatidylcholine-Mixed Micelles: Development of a Spectrophotometric Assay Suitable for a Microtiterplate Reader”, by Laure J. Reynolds, Lori L. Hughes, and Edward A Dennis, Analytical Biochemistry, 204, pp. 190-197, 1992 (the disclosure of which is incorporated herein by reference):
Adjust pH to 4.5 with acetic acid
DTNB—5,5′-dithiobis-2-nitrobenzoic acid
RACEMIC DIHEPTANOYL THIO—PC
racemic 1,2-bis(heptanoylthio)-1,2-dideoxy-sn-glycero-3-phosphorylcholine
TRITON X-100™ prepare at 6.249 mg/ml in reaction buffer to equal […].
A measured volume of racemic dipheptanoyl thio PC supplied in chloroform at a concentration of 100 mg/ml is taken to dryness and redissolved in 10 millimolar TRITON X-100™ nonionic detergent aqueous solution. Reaction Buffer is added to the solution, then DTNB to give the Reaction Mixture.
The reaction mixture thus obtained contains 1 mM diheptanoly thio-PC substrate, 0.29 mm Triton X-100™ detergent, and 0.12 mm DTMB in a buffered aqueous solution at pH 7.5.
1. Add 0.2 ml reaction mixture to all wells;
2. Add 10 ul test compound (or solvent blank) to appropriate wells, mix 20 seconds;
3. Add 50 nanograms of sPLA2 (10 microliters) to appropriate wells;
4. […]
5. Read absorbance of wells at 405 nanometers with an automatic plate reader.
Tests were done in triplicate. […] Compounds initially found to be active were re-assayed to confirm their activity and, if sufficiently active, IC50 values were determined. […] In all cases, % inhibition measured at 405 nanometers generated by enzyme reactions containing inhibitors relative to the uninhibited control reactions was determined. […] IC50 values were determined by plotting log concentration versus inhibition values in the range from 10-90% inhibition.

IC50	Compound
1.41 µM	CCc1sc2cccc(OCC(=O)O)c2c1C(=O)C(N)=O [Example 1, (3-aminooxalyl-2-ethylbenzo[b]thiophen-4-yloxy)acetic acid]
64.8 µM	CCc1sc2cccc(OCC(=O)N[C@@H](CC(C)C)C(=O)OC)c2c1C(=O)C(N)=O [Example 2, 2(S)-[2-[(3-aminooxalyl-2-ethylbenzo [b]thiophen-4-yl)oxy]acetylamino]-4-methylpentanoic cid methylester]
10.6 µM	CCc1sc2cccc(OCC(=O)N[C@@H](CC(C)C)C(=O)O)c2c1C(=O)C(N)=O [Example 3, 2(S)-[2-[(3-aminooxalyl-2-ethylbenzo [b]thiophen-4-yl)oxy]acetylamino]-4-methylpentanoic acid]
